Where “and” joins values, the source holds several entries; their conditions need not be identical. Equal values may be shown once.
What was measured:
α1b-AR = molecular target: T1, α1b-AR (Homo sapiens, UniProt P35368); experiment: α1-Adrenergic receptor radio-ligand (125I-HEAT) binding assay, α1b subtype; details: COS-7 cell membranes transfected with α1b-AR, 125I-HEAT 50 pM; read-out: Receptor Binding, Ki α1b-AR
T1 construct: expressed in transfected cells; host or cells: COS-7
T1 sequence (P35368 1-520): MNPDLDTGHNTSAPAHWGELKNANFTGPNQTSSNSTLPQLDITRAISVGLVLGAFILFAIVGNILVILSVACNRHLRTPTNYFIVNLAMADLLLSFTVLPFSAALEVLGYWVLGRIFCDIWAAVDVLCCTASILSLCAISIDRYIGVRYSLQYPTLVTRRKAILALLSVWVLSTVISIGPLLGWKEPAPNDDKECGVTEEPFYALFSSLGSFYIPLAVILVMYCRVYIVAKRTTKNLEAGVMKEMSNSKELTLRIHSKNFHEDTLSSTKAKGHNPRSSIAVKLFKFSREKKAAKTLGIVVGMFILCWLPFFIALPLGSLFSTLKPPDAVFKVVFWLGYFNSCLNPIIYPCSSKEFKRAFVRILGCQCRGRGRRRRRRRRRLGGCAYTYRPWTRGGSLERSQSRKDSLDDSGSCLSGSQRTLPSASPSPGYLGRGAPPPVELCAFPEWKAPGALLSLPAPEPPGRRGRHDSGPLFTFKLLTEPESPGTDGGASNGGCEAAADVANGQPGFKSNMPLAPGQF
Outline: (§1)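 Membranes from COS-7 cells transfected with a single α1-AR subtype, incubated 1 h at rt with 50 pM 125I-HEAT and compound (1 pM–10 µM, half-log steps, final) in Tris/EDTA/NaCl pH 7.4. Bound radioactivity collected by GF/C filtration and scintillation counting, triplicates; Ki derived.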

α1d-AR = molecular target: T2, α1d-AR (Homo sapiens, UniProt P25100); experiment: α1-Adrenergic receptor radio-ligand (125I-HEAT) binding assay, α1d subtype; details: COS-7 cell membranes transfected with α1d-AR, 125I-HEAT 50 pM; read-out: Receptor Binding, Ki α1d-AR
T2 construct: expressed in transfected cells; host or cells: COS-7
T2 sequence (P25100 1-572): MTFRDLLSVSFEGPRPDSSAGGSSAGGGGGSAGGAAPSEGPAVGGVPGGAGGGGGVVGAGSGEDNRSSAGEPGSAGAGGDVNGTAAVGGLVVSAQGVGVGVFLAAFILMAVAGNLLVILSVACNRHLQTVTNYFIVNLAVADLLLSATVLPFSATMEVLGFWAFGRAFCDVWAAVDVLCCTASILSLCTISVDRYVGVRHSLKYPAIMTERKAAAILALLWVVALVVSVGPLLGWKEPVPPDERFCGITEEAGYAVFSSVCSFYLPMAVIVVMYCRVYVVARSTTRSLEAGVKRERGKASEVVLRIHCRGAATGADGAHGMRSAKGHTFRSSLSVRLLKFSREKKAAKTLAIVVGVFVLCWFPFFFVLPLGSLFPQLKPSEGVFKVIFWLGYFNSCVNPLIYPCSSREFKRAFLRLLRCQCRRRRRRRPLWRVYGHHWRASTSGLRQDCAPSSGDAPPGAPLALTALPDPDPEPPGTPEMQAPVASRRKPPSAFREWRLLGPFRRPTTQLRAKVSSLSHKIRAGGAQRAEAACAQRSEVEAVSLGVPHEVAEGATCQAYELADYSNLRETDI
Outline: as §1

α1a-AR = molecular target: T3, α1a-AR (Homo sapiens, UniProt P35348); experiment: α1-Adrenergic receptor radio-ligand (125I-HEAT) binding assay, α1a subtype; details: COS-7 cell membranes transfected with α1a-AR, 125I-HEAT 50 pM; read-out: Receptor Binding, Ki α1a-AR
T3 construct: expressed in transfected cells; host or cells: COS-7
T3 sequence (P35348 1-466): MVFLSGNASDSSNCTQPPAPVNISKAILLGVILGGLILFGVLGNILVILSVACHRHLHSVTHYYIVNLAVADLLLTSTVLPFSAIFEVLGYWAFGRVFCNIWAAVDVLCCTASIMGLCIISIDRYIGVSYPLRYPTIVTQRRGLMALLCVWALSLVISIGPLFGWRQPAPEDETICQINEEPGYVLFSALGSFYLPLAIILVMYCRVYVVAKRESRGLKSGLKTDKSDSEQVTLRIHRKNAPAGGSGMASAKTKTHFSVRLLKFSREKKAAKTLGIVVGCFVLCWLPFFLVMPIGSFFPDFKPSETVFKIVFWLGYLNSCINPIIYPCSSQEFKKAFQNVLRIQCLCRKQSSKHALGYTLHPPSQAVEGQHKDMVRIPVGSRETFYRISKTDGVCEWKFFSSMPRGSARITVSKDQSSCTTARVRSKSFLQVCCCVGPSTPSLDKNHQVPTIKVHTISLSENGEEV
Outline: as §1

Ki (α1b-AR)	Ki (α1d-AR)	Ki (α1a-AR)	melting point	SMILES
301 nM	8.6 nM	1.5 nM	137 to 139 °C	CC(C)Oc1ccccc1N1CCN(Cc2cccc(C(=O)N3CCc4cc(N)ccc43)c2)CC1 [Cpd 1, (5-amino-2,3-dihydro-indol-1-yl)-{3-[4-(2-isopropoxy-phenyl)-piperazin-1-ylmethyl]-phenyl}-methanone]
321 nM	9.7 nM	1.1 nM	73 to 76 °C	CC(C)Oc1ccccc1N1CCN(Cc2cccc(C(=O)N3CCc4cc(NS(=O)(=O)c5ccc6ccccc6c5)ccc43)c2)CC1 [Cpd 2, naphthalene-2-sulfonic acid (1-{3-[4-(2-isopropoxy-phenyl)-piperazin-1-ylmethyl]-benzoyl}-2,3-dihydro-1H-indol-5-yl)-amide]
	317 nM	195 nM	116 to 118 °C	CCCCCCCCc1ccc(CNc2ccc3c(c2)CCN3C(=O)c2cccc(CN3CCN(c4ccccc4OC(C)C)CC3)c2)cc1 [Cpd 23, {3-[4-(2-isopropoxy-phenyl)-piperazin-1-ylmethyl]-phenyl}-[5-(4-octyl-benzylamino)-2,3-dihydro-indol-1-yl]-methanone]
104 nM	96 nM	82 nM		COc1ccccc1CN1CCN(Cc2ccc(C(=O)N3CCc4ccccc43)cc2)CC1 [Cpd 53, (2,3-dihydro-indol-1-yl)-{4-[4-(2-methoxy-benzyl)-piperazin-1-ylmethyl]-phenyl}-methanone]
310 nM	43 nM	25.5 nM		O=C(c1ccc(CN2CCN(c3ccccc3OCC(F)(F)F)CC2)cc1)N1CCc2ccccc21 [Cpd 55, (2,3-dihydro-indol-1-yl)-(4-{4-[2-(2,2,2-trifluoro-ethoxy)-phenyl]-piperazin-1-ylmethyl}-phenyl)-methanone]
655 nM	1910 nM	1200 nM		CC(C)Oc1ccccc1CN1CCN(Cc2cccc(C(=O)N3CCc4ccccc43)c2)CC1 [Cpd 56, (2,3-dihydro-indol-1-yl)-{3-[4-(2-isopropoxy-benzyl)-piperazin-1-ylmethyl]-phenyl}-methanone]
237 nM	1.4 nM	1.8 nM		CC(C)Oc1ccccc1C1CCN(Cc2cccc(C(=O)N3CCc4ccc(NCc5ccccc5F)cc43)c2)CC1 [Cpd 57, [6-(2-fluoro-benzylamino)-2,3-dihydro-indol-1-yl]-{3-[4-(2-isopropoxy-phenyl)-piperidin-1-ylmethyl]-phenyl}-methanone]
234 nM and 255 nM	1.9 nM and 1 nM	0.8 nM and 0.5 nM		CC(C)Oc1ccccc1C1CCN(Cc2cccc(C(=O)N3CCc4ccc(NS(=O)(=O)c5c(F)cccc5F)cc43)c2)CC1 [Cpd 58, 2,6-difluoro-N-(1-{3-[4-(2-isopropoxy-phenyl)-piperidin 1-ylmethyl]-benzoyl}-2,3-dihydro-1H-indol-6-yl)-benzenesulfonamide]
101 nM	1.1 nM	8.3 nM		COc1ccccc1C1CCN(Cc2cccc(C(=O)N3CCc4ccc(NCc5ccccc5F)cc43)c2)CC1 [Cpd 59, [6-(2-fluoro-benzylamino)-2,3-dihydro-indol-1-yl]-{3-[4-(2-methoxy-phenyl)-piperidin-1-ylmethyl]-phenyl}-methanone]
121 nM	0.4 nM	0.4 nM		CC(C)Oc1ccccc1C1CCN(Cc2cccc(C(=O)N3CCc4ccc(NC(=O)Nc5c(F)cccc5F)cc43)c2)CC1 [Cpd 60, 1-(2,6-difluoro-phenyl)-3-(1-{3-[4-(2-isopropoxy-phenyl)-piperidin-1-ylmethyl]-benzoyl}-2,3-dihydro-1H-indol-6-yl)-urea]
152 nM	2.1 nM	15.5 nM		COc1ccccc1C1CCN(Cc2cccc(C(=O)N3CCc4ccc(NS(=O)(=O)c5c(F)cccc5F)cc43)c2)CC1 [Cpd 61, 2,6-difluoro-N-(1-{3-[4-(2-methoxy-phenyl)-piperidin-1-ylmethyl]-benzoyl}-2,3-dihydro-1H-indol-6-yl)-benzenesulfonamide]
146 nM	101 nM	105 nM		COc1ccccc1CN1CCN(Cc2cccc(C(=O)N3CCc4ccccc43)c2)CC1 [Cpd 64, (2,3-dihydro-indol-1-yl)-{3-[4-(2-methoxy-benzyl)-piperazin-1-ylmethyl]-phenyl}-methanone]
82.8 nM	0.3 nM	1.3 nM		CC(C)Oc1ccccc1N1CCN(Cc2cccc(C(=O)N3CCc4cc(Br)ccc43)c2)CC1 [Cpd 66, (5-bromo-2,3-dihydro-indol-1-yl)-{3-[4-(2-isopropoxy-phenyl)-piperazin-1-ylmethyl]-phenyl}-methanone]
1140 nM and 1260 nM	14.7 nM and 22 nM	2.1 nM and 12 nM		CC(C)Oc1ccccc1N1CCN(Cc2cccc(C(=O)N3CCc4cc(Cl)ccc43)c2)CC1 [Cpd 67, (5-chloro-2,3-dihydro-indol-1-yl)-{3-[4-(2-isopropoxy-phenyl)-piperazin-1-ylmethyl]-phenyl}-methanone]
288 nM	13 nM	13 nM		CC(C)Oc1ccccc1N1CCN(Cc2cccc(C(=O)N3CCc4cc(F)ccc43)c2)CC1 [Cpd 68, (5-fluoro-2,3-dihydro-indol-1-yl)-{3-[4-(2-isopropoxy-phenyl)-piperazin-1-ylmethyl]-phenyl}-methanone]
1760 nM	41 nM	107 nM		CC(C)Oc1ccccc1N1CCN(Cc2cccc(C(=O)N3CCc4cc(S(=O)(=O)N(C)C)ccc43)c2)CC1 [Cpd 70, 1-{3-[4-(2-isopropoxy-phenyl)-piperazin-1-ylmethyl]-benzoyl}-2,3-dihydro-1H-indole-5-sulfonic acid dimethylamide]
716 nM and 720 nM	16 nM and 21 nM	14 nM and 17.5 nM		CC(C)Oc1ccccc1N1CCN(Cc2cccc(C(=O)N3CCc4cc(S(C)(=O)=O)ccc43)c2)CC1 [Cpd 71, {3-[4-(2-isopropoxy-phenyl)-piperazin-1-ylmethyl]-phenyl}-(5-methanesulfonyl-2,3-dihydro-indol-1-yl)-methanone]
154 nM	46 nM	15 nM		CC(C)Oc1ccccc1N1CCN(Cc2cccc(C(=O)N3CCc4cc(-c5ccccc5)ccc43)c2)CC1 [Cpd 72, {3-[4-(2-isopropoxy-phenyl)-piperazin-1-ylmethyl]-phenyl}-(5-phenyl-2,3-dihydro-indol-1-yl)-methanone]
208 nM	1.5 nM	31 nM		CC(C)Oc1ccccc1N1CCN(Cc2cccc(C(=O)N3CCc4ccc(NC(=O)Nc5c(F)cccc5F)cc43)c2)CC1 [Cpd 73, 1-(2,6-difluoro-phenyl)-3-(1-{3-[4-(2-isopropoxy-phenyl)-piperazin-1-ylmethyl]-benzoyl}-2,3-dihydro-1H-indol-6-yl)-urea]

SMILES	Ki (α1b-AR)	Ki (α1d-AR)	Ki (α1a-AR)	melting point
CC(C)COc1ccccc1N1CCN(Cc2cccc(C(=O)N3CCc4ccccc43)c2)CC1 [Cpd 65, (2,3-dihydro-indol-1-yl)-{3-[4-(2-isobutoxy-phenyl)-piperazin-1-ylmethyl]-phenyl}-methanone]	909 nM	42 nM	65 nM	

Reference: patent US20060183902A1, “Dihydroindolyl methanones as alpha 1a/1d adrenoreceptor modulators for the treatment of benign prostatic hypertrophy and lower urinary tract symptoms” (priority 2005, published 2006)
